{"source": "patent US10016424B2", "about": "“Method and pharmaceutical composition for use in the treatment of epilepsy” (INSERM (Institut National de la Sante et de la Recherche …, priority 2013, dated 2018)", "key": {"KARs": {"molecular_target": "T1, KARs (Mus musculus, UniProt P39087+Q61626)", "T1 construct": "from tissue; host or cells: dentate granule cells in pilocarpine-treated organotypic hippocampal/entorhinal slice cultures from WT mice (FVB/N)", "T1 sequence (P39087 32-908)": "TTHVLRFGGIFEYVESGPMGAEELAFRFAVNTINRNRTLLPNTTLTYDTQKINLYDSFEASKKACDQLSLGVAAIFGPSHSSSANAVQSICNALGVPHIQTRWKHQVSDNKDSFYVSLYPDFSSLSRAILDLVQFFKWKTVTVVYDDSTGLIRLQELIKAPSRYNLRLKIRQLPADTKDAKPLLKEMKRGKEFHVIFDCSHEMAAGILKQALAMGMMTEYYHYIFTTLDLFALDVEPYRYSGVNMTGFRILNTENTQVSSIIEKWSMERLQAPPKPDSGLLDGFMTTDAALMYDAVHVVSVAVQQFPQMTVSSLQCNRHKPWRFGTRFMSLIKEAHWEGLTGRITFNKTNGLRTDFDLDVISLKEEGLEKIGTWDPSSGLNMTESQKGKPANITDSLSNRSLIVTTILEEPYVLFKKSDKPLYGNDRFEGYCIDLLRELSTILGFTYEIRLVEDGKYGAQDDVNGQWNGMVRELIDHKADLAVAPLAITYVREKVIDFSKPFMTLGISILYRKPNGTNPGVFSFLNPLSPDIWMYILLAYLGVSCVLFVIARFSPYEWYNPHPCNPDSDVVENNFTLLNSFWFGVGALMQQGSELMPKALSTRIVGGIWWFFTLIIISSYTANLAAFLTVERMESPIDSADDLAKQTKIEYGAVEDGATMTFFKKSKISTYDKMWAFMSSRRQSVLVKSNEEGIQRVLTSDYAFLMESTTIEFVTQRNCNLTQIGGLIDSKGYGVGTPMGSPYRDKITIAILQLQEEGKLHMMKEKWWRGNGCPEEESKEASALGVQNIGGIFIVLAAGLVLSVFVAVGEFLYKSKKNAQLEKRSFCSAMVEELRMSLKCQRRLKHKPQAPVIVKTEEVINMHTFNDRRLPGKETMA", "T1 sequence (Q61626 15-979)": "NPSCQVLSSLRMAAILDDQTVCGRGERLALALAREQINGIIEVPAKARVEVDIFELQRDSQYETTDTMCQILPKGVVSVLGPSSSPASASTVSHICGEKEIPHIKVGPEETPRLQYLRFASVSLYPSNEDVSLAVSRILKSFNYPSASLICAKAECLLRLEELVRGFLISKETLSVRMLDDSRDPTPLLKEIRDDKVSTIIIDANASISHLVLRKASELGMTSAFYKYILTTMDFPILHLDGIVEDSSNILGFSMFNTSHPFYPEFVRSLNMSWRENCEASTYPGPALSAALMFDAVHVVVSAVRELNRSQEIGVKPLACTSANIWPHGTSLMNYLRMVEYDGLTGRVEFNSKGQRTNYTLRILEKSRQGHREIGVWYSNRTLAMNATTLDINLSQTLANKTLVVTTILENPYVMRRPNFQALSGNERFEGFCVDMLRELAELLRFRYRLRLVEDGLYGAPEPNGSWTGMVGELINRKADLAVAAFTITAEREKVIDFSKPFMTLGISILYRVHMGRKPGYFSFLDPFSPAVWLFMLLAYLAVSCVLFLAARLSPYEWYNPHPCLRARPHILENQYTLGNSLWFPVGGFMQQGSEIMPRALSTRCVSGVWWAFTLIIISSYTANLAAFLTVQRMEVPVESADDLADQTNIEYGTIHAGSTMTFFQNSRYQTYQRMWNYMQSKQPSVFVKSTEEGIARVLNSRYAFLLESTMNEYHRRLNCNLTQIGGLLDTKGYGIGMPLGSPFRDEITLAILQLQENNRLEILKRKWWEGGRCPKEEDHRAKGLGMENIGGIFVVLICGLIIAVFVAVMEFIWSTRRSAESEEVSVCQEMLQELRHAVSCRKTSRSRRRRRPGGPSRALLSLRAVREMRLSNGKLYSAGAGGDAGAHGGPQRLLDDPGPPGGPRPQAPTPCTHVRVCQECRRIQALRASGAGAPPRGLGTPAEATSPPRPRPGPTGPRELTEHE", "type": "cell-based", "conditions": "WT cultured slices; SYM2081 10 μM, UBP310 5 μM; Sr2+ conditions, 5 μM gabazine, 40 μM D-APV", "protocol": "Hippocampal/entorhinal cortex slices (350 μm) were prepared from pre-genotyped GluK2−/− and WT mice (P9-10, FVB/N background) using a McIlwain tissue chopper. Slices were placed on mesh inserts (Millipore # PICMORG50) inside culture dishes containing 1 ml of the following medium: MEM 50%, HS 25%, HBSS 25%, HEPES 15 mM glucose 6.5 mg/ml and insulin 0.1 mg/ml. Culture medium was changed every 2-3 days and slices maintained in an incubator at 37° C./5% CO2. Pilocarpine (0.5 μM) was added to the medium at 5 D.I.V and removed at 7 D.I.V; slices were utilized for experiments from 9 D.I.V.\nCultured or acute slices were individually transferred to a recording chamber maintained at 30-32° C. and continuously perfused (2 ml/min) with oxygenated normal or adapted ACSF containing 5 μM gabazine. Local field potentials were made in the granule cell layer of the DG with glass electrodes (2-3 MΩ; filled with normal ACSF) using a DAM-80 amplifier (low filter, 1 Hz; […], 3 KHz; World Precision Instruments, Sarasota, Fla.). For evoked synaptic transmission, electrical stimulation was performed with a bipolar NiCh electrode (#762000, AM systems). […] Signals were analyzed off-line using Clampfit 9.2 (PClamp) and MiniAnalysis 6.0.1 (Synaptosoft, Decatur, Ga.). In organotypic slices, spontaneous EPSCs were recorded at the reversal potential for GABAergic currents (Vh=−70 mV). To characterize the nature and kinetic properties of fast and slow events, miniature EPSCs (mEPSCs) evoked in Sr2+ conditions (external Ca2+ was substituted with 1.2 mM Sr2+) were recorded in DGCs from GluK2−/− and WT slices. Electrical stimulation was made in the molecular layer in the continued presence of 5 μM gabazine and 40 μM D-APV; asynchronous mEPSCs were measured during the 300 ms period after the stimulus artifact. […] Filtered traces were also analyzed by Fourier analysis (Hamming) using Clampfit 9.2. In acute hippocampal slices, intensity of antidromically-evoked bursts was quantified using coastline index (Epsztein et al., 2005)."}, "[1]": {"tested_on": "bursts driven by recurrent mossy fibers in DG", "experiment": "Antidromically evoked bursts (coastline burst index) in dentate gyrus of acute slices from pilocarpine-treated mice", "type": "cell-based, mouse", "conditions": "WT mice; bath application", "protocol": "All experiments were approved by the Institut National de la Santé et de la Recherche Médicale animal care and use committee of May 29, 2001 (2001-464) and the European community council directive of Nov. 24, 1986 (86/609/EEC). Mice (FVB/N background) had access to food and water ad libitum and were housed under a 12 h light/dark cycle at 22-24° C. Male GluK2−/− and WT mice (P60-80) were given scopolamine (1 mg/kg) subcutaneously (s.c.) 15 minutes prior to s.c. administration of pilocarpine (200-600 mg/kg). A ramp protocol was used whereby animals were given an initial dose of 200 mg/kg followed by half-doses every 30 minutes until seizures appeared. […] Diazepam (10 mg/kg) was administered 45 minutes after onset of SE. […]\nCultured or acute slices were individually transferred to a recording chamber maintained at 30-32° C. and continuously perfused (2 ml/min) with oxygenated normal or adapted ACSF containing 5 μM gabazine. […] Signals were analyzed off-line using Clampfit 9.2 (PClamp) and MiniAnalysis 6.0.1 (Synaptosoft, Decatur, Ga.). In organotypic slices, spontaneous EPSCs were recorded at the reversal potential for GABAergic currents (Vh=−70 mV). To characterize the nature and kinetic properties of fast and slow events, miniature EPSCs (mEPSCs) evoked in Sr2+ conditions (external Ca2+ was substituted with 1.2 mM Sr2+) were recorded in DGCs from GluK2−/− and WT slices. […]"}}, "data": [{"smiles": "Cc1cn(C[C@H](N)C(=O)O)c(=O)n(Cc2ccsc2C(=O)O)c1=O", "note": "[UBP310]", "values": [{"measurement": "effect on KAR-mediated mEPSCs", "setting": "KARs", "result": "abolished"}, {"measurement": "reduction of evoked bursts (coastline burst index)", "setting": "[1]", "result": 55, "unit": "%"}]}]}
